{
  "source": "patent US11229703B2",
  "about": "“Radiotherapy improvements” (NOXOPHARM LIMITED, priority 2016, dated 2022)",
  "origin": "cited, not measured here",
  "key": {"[1]": {"system": "cancer, especially metastatic disease involving solid tumours", "details": "compound alone, various clinical trials"}, "[2]": {"system": "hormone refractory prostate cancer", "details": "males with hormone refractory prostate cancer given idronoxil ranging from 20 to 400 mg; 6 months from treatment"}},
  "data": [
    {"smiles": "O=c1c(-c2ccc(O)cc2)coc2cc(O)cc(O)c12", "note": "[genestein, reference compound]", "values": [
      {"measurement": "complete or partial response to cancer", "setting": "[1]", "result": "unable to provide either a complete or partial response"}
    ]},
    {"smiles": "Oc1ccc(C2=Cc3ccc(O)cc3OC2)cc1", "note": "[idronoxil, 2H-1-Benzopyran-7-0,1,3-(4-hydroxyphenyl)]", "values": [
      {"measurement": "disease progression", "setting": "[2]", "result": "disease had progressed in most individuals by 6 months"},
      {"measurement": "complete or partial response to cancer", "setting": "[1]", "result": "unable to provide either a complete or partial response"}
    ]}
  ]
}
